For assay [1], the system named is allergen-induced challenge. The assay can be described thus: relative potencies of different isomers of contignasterol against allergen-induced challenge. The source says: Table 4 illustrates the relative potencies of different isomers of contignasterol against allergen-induced challenge.
Assay [2] deals with platelets. The experiment in a line: platelet aggregation caused by collagen. The class given is cell-based. The source says:
(§1) PAF is a local mediator of thrombosis. Similarly, collagen exposure of vessel walls leads to the formation of […] clot in the vessels. Therefore, prevention of the formation of blood clots has direct implication in the treatment of thrombosis and associated cardiovascular diseases.
(§2) PAF and collagen were used at their maximal concentrations which induced 100% aggregation of platelets.

Assay [3] concerns tracheal tissues. The assay can be described thus: ovalbumine (antigen)-induced contraction of tracheal tissues from sensitized guinea pigs. The note with it: antigen ovalbumine (OA). The class given is cell-based, guinea pig. The source says: We have used the contignasterol as defined in paragraph one of the Summary to block bronchoconstriction induced in guinea pigs. Guinea pigs were sensitized to ovalbumine (OA) that can serve as an antigen. The trachea from these animals after exposure to the antigen (OA) contracted in a similar manner as to in vivo situation.

Assay [4] has as its system platelets. The assay can be described thus: platelet aggregation caused by platelet activating factor (PAF). The class given is cell-based.
Description: as §1, §2

For assay [5], the system named is rat mast cells. To be noted: induced by anti-IgE; cited from earlier work.

“Also recorded” adds a separate entry of the source.

The values below come from patent US5646138A, “Contignasterol compounds and pharmaceutical compositions comprising the same” (University of British Columbia, priority 1992, dated 1997).

`CC(C)C1CC(O)OC([C@@H](C)[C@H]2CC(=O)[C@@H]3[C@@H]4[C@@H](O)[C@H](O)[C@H]5[C@@H](O)[C@H](O)CC[C@]5(C)[C@H]4CC[C@]23C)C1` (some centres unmarked) [Compound 1, contignasterol]: the inhibition (as a rule, the percentage by which the read-out fell short of the control) at 10 µM in assay [1] was found to be 43%. In addition, the “aggregation of platelets caused by collagen (in words)” value in assay [2] is “inhibited aggregation of platelets”. In addition, the “contraction of trachea pretreated with contignasterol after exposure to antigen (in words)” value in assay [3] is reported as “did not significantly contract; also recorded: inhibited airway smooth muscle contraction”. Besides, the “aggregation of platelets caused by PAF (in words)” value in assay [4] was “inhibited aggregation of platelets”.

On to `CC(C)C1CC(O)OC([C@@H](C)[C@H]2CC(=O)[C@H]3[C@@H]4[C@@H](O)[C@H](O)[C@H]5[C@@H](O)[C@H](O)CC[C@]5(C)[C@H]4CC[C@]23C)C1` (some centres unmarked) [Compound 2, 14-epicontignasterol], for which the inhibition at 10 µM in assay [1] amounted to 25%.

`COC1CC(C(C)C)CC([C@@H](C)[C@H]2CC(=O)[C@@H]3[C@@H]4[C@@H](O)[C@H](O)[C@H]5[C@@H](O)[C@H](O)CC[C@]5(C)[C@H]4CC[C@]23C)O1` (some centres unmarked) [Compound 3, Methyl-acetal Contignasterol]: the inhibition at 10 µM in assay [1] was 12%.

In the case of `CC(C)C[C@]1(O)C[C@@H](C)[C@H]2[C@@H]1C(=O)[C@@H]1[C@@H]3[C@@H](O)[C@H](O)[C@H]4C[C@H](O)CC[C@]4(C)[C@H]3CC[C@]21C` [xestobergsterol A, 23S-16β, 23-cyclo-3α, 6α, 7β, 23-tetrahydroxy-5α, 14β-cholestan-15-one], in assay [5], the “inhibition of histamine release from rat mast cells (in words)” value is listed as “potent inhibitors of histamine release”.

Regarding `CC(C)C[C@]1(O)C[C@@H](C)[C@H]2[C@@H]1C(=O)[C@@H]1[C@@H]3[C@@H](O)[C@H](O)[C@H]4C[C@H](O)[C@@H](O)[C@@H](O)[C@]4(C)[C@H]3CC[C@]21C` [xestobergsterol B, 23S-16β, 23-cyclo-1β, 2β, 3α, 6α, 7β, 23-hexahydroxy-5α, 14β-cholestan-15-one], in assay [5], the “inhibition of histamine release from rat mast cells (in words)” value is listed as “potent inhibitors of histamine release”.
